“Also recorded” adds a separate entry of the source. Where no end group is shown, it is not given here.
Key:
[1] = tested on: H460 tumors; test: TUNEL staining of tumors; assay type: in vivo, BALB/c nude mice; human H460 tumor; settings: camptothecin 10 mg/kg single dose
Procedure: (§1) Female nude mice (BALB/c nude; body weight, 20±3 g; n = 5) were housed in a specific pathogen-free environment at 22±2°C and 55±5% relative humidity with light. Tumors were generated by subcutaneously injecting H460 cells (5×10^6 cells) into the right shoulder of 6-wk-old female BALB/c nude mice and allowing them to grow for 3 weeks (size of 0.5 to 0.7 cm). For in vivo analysis of tumor targeting, the tumor-bearing mice were either treated or not treated with a single dose of camptothecin (10 mg/kg) 24 hrs prior to intravenous injection of Cy7.5-labeled PSP1, Cy7.5-annexin V or Cy7.5-labeled control peptide into the tail vein under inhalational anesthesia (1% (w/v) isoflurane in 2 L oxygen).
At the 6 hr time point, the animals were euthanized with CO2, and tumor tissues were removed from a subset of animals. The tumor tissues were then fixed by incubating with 4% paraformaldehyde (PFA) overnight, followed by freezing for cryosectioning and immunohistochemical studies under a fluorescence microscope (Zeiss, Oberkochen, Germany). Apoptosis in the tumor tissues was assessed by […] terminal deoxynucleotidyl transferase-mediated dUTP nick-end labelling (TUNEL) staining in accordance with the manufacturer’s instructions (Chemicon Int., Temecula, CA, USA).

[2] = tested on: H460 cells; test: apoptosis induction in H460 cells, annexin V/PI staining; settings: etoposide 50 μM
[3] = tested on: apoptotic H460 cells; test: FACS binding to apoptotic H460 cells; assay type: cell-based, human; settings: FITC-labeled; for binding of PSP1 mutants to apoptotic H460 cells (FACS): 10 μg/ml, vs PSP1, 4°C, n = 3
Procedure: (§2) The human lung cancer cell H460, which was obtained from the American Type Culture Collection (ATCC), was maintained in RPMI-1640 media supplemented with 10% heat-inactivated fetal bovine serum (FBS) and penicillin G/streptomycin at 37°C in a humidified atmosphere of 95% air and 5% CO2.
(§3) To induce apoptosis of lung tumor cells (H460), the cells (5×10^6 cell) were grown overnight and then treated with etoposide (50 μM) (Sigma) in serum-free media for 22 hrs, followed by washing with phosphate-buffered saline (PBS) and binding buffer (10 mM Hepes (pH 7.4), 150 mM NaCl, and 2 mM CaCl2).
(§4) Control peptide (grey); FITC-NSSSVDK.

[4] = tested on: normal H460 cells; test: FACS binding to normal H460 cells; assay type: cell-based, human; settings: FITC-labeled, 10 μg/ml; n = 3
Procedure: as §2, §3, §4

[5] = target: PS liposomes; test: SPR binding to PS liposomes
Description: To compare the kinetics of annexin V and PSP1 peptide binding to PS liposomes, SPR spectroscopy was employed (Reichert Inc, NY, USA). PC and PS liposomes (0.8:0.2 PC:PS) were generated as previously described and were homogenously purified using a liposome mini-extruder with a 100 nm membrane filter, based on the manufacturer’s protocol (Avanti Polar Lipids). […] Briefly, phytosphingosine was immobilized by activating the carboxymethyl groups on dextran-coated chips (Reichert Life Sciences) through a reaction with N-hydroxysuccinimide (Sigma-Aldrich), followed by covalent bonding of the ligands to the chip surface via amide linkages and blocking of excess activated carboxyls with ethanolamine. The purified PS or PC liposomes were captured on the phytosphingosine layer at a flow rate of 5 μl/min in liposome immobilization buffer (10 mM Tris-HCl (pH 8.0), 100 mM NaCl, and 2 mM CaCl2). To use the PC-immobilized surface as a control, the injected PS or PC liposome volume was adjusted to an immobilization level of approximately 4000±200 RU. Different concentrations of the PSP1 peptide (0.313 to 5 μM) and annexin V (3.13 to 100 nM) in running buffer (10 mM Tris-HCl (pH 8.0), 100 mM NaCl, 2 mM CaCl2, and 62.5 μg/ml BSA) were allowed to flow over the surfaces bound to the immobilized liposomes for 3 min at a rate of 30 μl/min. The sensor surface was regenerated after each association and dissociation cycle by injecting 10 mM EDTA for 20 s, followed by 50 mM NaOH for 10 s. The interaction of the ligand and the analyte was analyzed using Scrubber 2 Biologic software (http://www.biologic.com.au/). The binding kinetics was assessed by determining the association (kon), dissociation (koff), and equilibrium (KD) constants.
The in vitro binding affinity of PSP1 and annexin V for PS was further examined using SPR analysis (Fig. 2). […] We immobilized PS liposomes on the surface of an SPR chip, applied a series of different concentrations of PSP1 or annexin V, and examined the binding kinetics. PS-specific binding was determined by subtracting binding responses to a PC liposome-coated surface from those obtained using a PS liposome-coated […] surface.
Fig 2 In vitro SPR analysis of PSP1 and annexin V binding to PS liposomes. (A) The indicated concentrations of PSP1 were injected onto the liposome-immobilized surface. Responses (RU) from the PC liposome-coated surface (reference) were subtracted from those from the PS:PC (2:8) liposome surface to monitor PS-specific binding. The equilibration binding constant (KD) and the association (Kon) and dissociation (Koff) rate constants were estimated using the Scrubber program. (B) Plots of the RU values of annexin V at the indicated concentrations.

[6] = tested on: apoptotic H460 cells; test: confocal microscopy of binding to apoptotic H460 cells; assay type: cell-based, human; settings: FITC-labeled, 20 μg/ml, apoptotic H460 (etoposide 50 μM), 4°C, 1 hr
[7] = tested on: untreated cancer cells; test: binding to normal (untreated) cancer cells, microscopy; assay type: cell-based, human; settings: 40 μg/ml; data not shown
Procedure: (A) Apoptotic H460 cells in a chamber slide were incubated with 20 μg of PSP1, control peptide, or annexin V for 30 min. The cells were washed and fixed with 4% PFA before staining with DAPI. The confocal images were taken by laser confocal microscopy. (B) Normal H460 cells were subjected to incubation with the same amount of peptide or annexin V.

[8] = tested on: apoptotic tumor cells in H460 tumor-bearing mice; test: in vivo fluorescence imaging of tumors after apoptosis induction; parameters: species or system BALB/c nude mice; human H460 tumor; settings: for in vivo tumor homing: i.v., camptothecin-treated H460 tumor-bearing mice, n = 5, imaging 10 min to 12 h, PSP1 10 μg/200 μl, annexin V and control peptide 100 μg/200 μl
Procedure: as §1
In vivo fluorescence images were taken at different time intervals after peptide injection (10 min, 1 h, 3 h, 6 h, and 12 h) using an eXplore Optix system (ART Advanced Research Technologies Inc., Montreal, Canada), which has excitation/emission wavelengths of 778 nm/805 nm. The obtained images were processed using eXplore Optix OptiView Software and normalized based on the baseline fluorescence, assessed for each mouse prior to peptide injection.
Fig 4 In vivo imaging of tumors after apoptosis induction. (A) Cy7.5-labelled PSP1peptide, control peptide, or annexin V was systematically injected into the tail vein of tumor-bearing nude mice treated with camptothecin 24 hrs before injection. The same amount of annexin V was also injected into non-camptothecin-treated tumor-bearing mice as a control. The homing of the peptides was examined after the indicated times using an optical imaging system. The white dotted circles indicate the tumors. (B) Histological examination of tumor tissues after homing of PSP1 and annexin V, performed under a fluorescence microscope. Tumor cell apoptosis was observed by TUNEL staining.

[9] = tested on: apoptotic cells in tumor tissue; test: histological examination of tumor tissues after in vivo homing; parameters: species or system BALB/c nude mice; human H460 tumor; settings: Cy7.5-labeled, i.v., tumors removed at 6 hr, camptothecin-treated mice
Procedure: At the 6 hr time point, the animals were euthanized with CO2, and tumor tissues were removed from a subset of animals. The tumor tissues were then fixed by incubating with 4% paraformaldehyde (PFA) overnight, followed by freezing for cryosectioning and immunohistochemical studies under a fluorescence microscope (Zeiss, Oberkochen, Germany). Apoptosis in the tumor tissues was assessed by […] terminal deoxynucleotidyl transferase-mediated dUTP nick-end labelling (TUNEL) staining in accordance with the manufacturer’s instructions (Chemicon Int., Temecula, CA, USA).  Fig 4 In vivo imaging of tumors after apoptosis induction. (A) Cy7.5-labelled PSP1peptide, control peptide, or annexin V was systematically injected into the tail vein of tumor-bearing nude mice treated with camptothecin 24 hrs before injection. The same amount of annexin V was also injected into non-camptothecin-treated tumor-bearing mice as a control. The homing of the peptides was examined after the indicated times using an optical imaging system. The white dotted circles indicate the tumors. (B) Histological examination of tumor tissues after homing of PSP1 and annexin V, performed under a fluorescence microscope. Tumor cell apoptosis was observed by TUNEL staining.

[10] = phage display; ref [17]; cited from earlier work
[11] = PS:PC (2:8) liposomes, PC response subtracted, Tris-HCl pH 8.0, 2 mM CaCl2, Scrubber, value from picture

CC[C@@]1(O)C(=O)OCc2c1cc1n(c2=O)Cc2cc3ccccc3nc2-1 [camptothecin]
in vivo apoptosis in tumors (TUNEL) [1]: increased area of in vivo apoptosis

COc1cc([C@@H]2c3cc4c(cc3[C@@H](O[C@@H]3O[C@@H]5CO[C@@H](C)O[C@H]5[C@H](O)[C@H]3O)[C@H]3COC(=O)[C@H]23)OCO4)cc(OC)c1O [etoposide]
effect of etoposide on H460 cells in words [2]: without evidence of significant necrosis; also recorded: caused PS exposure; also recorded: did not significantly change the cell shape or number | H460 cells undergoing apoptosis ([2]; 22 hrs, serum-free media, annexin V/PI FACS): more than 50%

CLSAAPSYC [AA-PSP1, mutant PSP1 peptide with alanine instead of tyrosine, …]
binding of PSP1 mutants to apoptotic H460 cells (FACS) [3]: significantly diminished by replacement of tyrosine by alanine

CLSFFPSYC [FF-PSP1, mutant PSP1 peptide with phenylalanine instead of tyrosine, …]
binding of PSP1 mutants to apoptotic H460 cells (FACS) [3]: bound to the apoptotic cells as much as PSP1 | binding to normal H460 cells (FACS) [4]: nonspecific binding to the normal cells

CLSYYPSYC [PSP1, peptide-based phosphatidylserine (PS) indicator PSP1 (…)]
Kd ([5]; PS liposomes, PC liposome response subtracted, Tris-HCl pH 8.0, 2 mM CaCl2, read-out: in vitro binding affinity (equilibrium binding constant, KD)): 10.7 µM | PS binding kinetics in words ([5]; PS liposomes, real-time association and dissociation): binds much more slowly to PS but, once bound, forms a more stable complex (slow dissociation) compared with annexin V; also recorded: dissociation of PSP1 was slow, even slower than that of annexin V | association rate constant (Kon) [5, 11]: 5.05±3.00×10^1 M^-1S^-1 | dissociation rate constant (Koff) [5, 11]: 2.87±0.95×10^-4 S^-1 | binding to apoptotic H460 cells (FACS) ([3]; etoposide 50 μM 22 hrs, 2, 10, 20, 50 μg/ml, binding buffer 10 mM Hepes pH 7.4, 150 mM NaCl ± 2 mM CaCl2, 4°C, 1 hr): specifically bound to apoptotic H460 cells in a concentration-dependent manner; also recorded: specifically binds to apoptotic cells through PS exposed on the apoptotic cell surface | apoptotic cell-specific signal (confocal microscopy) [6]: apoptotic cell-specific signals were clearly detected; also recorded: targets apoptotic tumor cells more efficiently than annexin V does | binding to untreated cancer cells [7]: a small degree of binding to untreated cancer cells | duration of in vivo fluorescence signal in tumor region ([8]; Cy7.5-labeled, i.v. tail vein, camptothecin 10 mg/kg 24 hrs before, PSP1 10 μg/200 μl (23.16 μM), annexin V 100 μg/200 μl (14.3 μM)): more than 12 hrs | in vivo tumor homing ([8]; Cy7.5-labeled): generated apoptosis/tumor-specific signals after cancer treatment in the animal model; also recorded: appeared higher than those of annexin V for the entire measurement period; also recorded: rapidly observed in the tumor region; also recorded: specifically homed to apoptotic cells in tumors after cancer therapy; also recorded: specifically targeted apoptotic cells in tumors following systemic administration | tumor-homing fluorescence signal in tumor cryosections [9]: significantly more prominent than that of annexin V | interaction with PS on apoptotic cells [10]: specific interaction with PS on apoptotic cells

NSSSVDK (also: FITC label, position not given here) [control peptide, control peptide (NSSSVDK), reference compound]
non-specific fluorescence in surrounding non-tumor tissues ([8]; Cy7.5-labeled control peptide 100 μg/200 μl i.v., camptothecin-treated tumor-bearing mice): surrounding non-tumor tissues absorbed fluorescence at the early time points, this non-specific signal vanished over time | in vivo tumor homing ([8]; Cy7.5-labeled): did not show specific tumor-homing signals | tumor-homing fluorescence signal in tumor cryosections [9]: No signals were observed in tumor tissues

Reference: PMC4372538, “Advantages of the Phosphatidylserine-Recognizing Peptide PSP1 for Molecular Imaging of Tumor Apoptosis Compared with Annexin V” (PLoS ONE, 2015)
